Data published in patent US20020077491A1, “Methods for forming combinatorial libraries combining amide bond formation with epoxide opening” (priority 2000, published 2002).
Where “and” joins values, the source holds several entries; their conditions need not be identical. Equal values may be shown once.

How the values were obtained:
[1] = target: T1, E. coli dihydrofolate reductase (DHFRec) (Escherichia coli, UniProt P0ABQ4); test: ALIS affinity selection-mass spectrometry with E. coli DHFR; type: binding
T1 construct: made in house
Excerpt: (§1) Utilizing the ALIS techniques described above, the affinity of ligands for DHFRec was compared to the affinity of the same ligands for the bovine (B. taurus) DHFR enzyme.

[2] = target: T2, bovine (B. taurus) DHFR enzyme (Bos taurus, UniProt P00376); test: ALIS affinity selection with bovine DHFR; type: binding; details: FIG. 9
T2 sequence (P00376 1-187): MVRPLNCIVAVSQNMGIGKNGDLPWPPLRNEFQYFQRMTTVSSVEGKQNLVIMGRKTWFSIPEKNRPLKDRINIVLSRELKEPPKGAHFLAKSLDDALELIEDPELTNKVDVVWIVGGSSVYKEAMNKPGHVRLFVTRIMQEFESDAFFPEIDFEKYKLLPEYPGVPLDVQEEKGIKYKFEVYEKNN
Excerpt: as §1

E. coli BL21(DE3) = test: Determination of antibacterial activity (inhibition of bacterial growth, absorbance at 600 nm); type: cell-based; details: Escherichia coli, 24 hours at 37° C.
Experimental: Protocols for the measurement of IC50 for the evaluation of antibacterial activity followed standard methods [Antibiotics in Laboratory Medicine, V. Lorian, Ed. Fourth edition, 1996. Williams and Wilkins; Baltimore, Md.]. Briefly, purified (S)-29, antibiotic control, or vehicle (DMSO) was subjected to serial dilution into Luria-Bertani growth medium in a manner that placed 0.1 mL aliquots of medium-plus-vehicle or medium-plus-antibiotic into each well of a sterile polystyrene 96-well plate. To aid compound dissolution, medium-analyte mixtures were warmed to 37° C. for eight hours with agitation. Bacterial cells, [E. coli: hsdS gal (λcIts857 ind 1 Sam7 nin5 lacUV5-T7 gene 1); BL21(DE3)] were grown in to mid-log phase at 37° C. The culture was then diluted 1:10^5 into prewarmed growth medium. Aliquots of diluted bacterial culture (0.1 mL) were then combined with the pre-aliquotted medium-analyte mixtures to yield 0.2 mL inoculated cultures containing no more than 2.5% DMSO. The plated inoculate series were then grown for twenty-four hours at 37° C. with orbital shaking. Bacterial cell growth was quantitated by measuring absorbance at 600 nm. IC50 for the inhibition of bacterial growth was defined as the concentration of drug at which cell growth was half maximal at twenty-four hours.

Row | Structure (SMILES) | ligand identified by affinity selection LC-MS-MS ([1]; sublibrary from Core 6 with building blocks 15 and 21) | affinity for DHFRec (ALIS) ([1]; E. coli enzyme, FIG. 9) | specificity for E. coli DHFR over bovine DHFR ([1]; pathogen vs. host DHFR, FIG. 9) | affinity for bovine (B. taurus) DHFR (ALIS) [2] | IC50 (E. coli BL21(DE3))
1 | COc1ccc([C@@H](C)NCC(O)COc2cc(C(=O)N3CCN(c4cccc(Cl)c4)CC3)on2)cc1 (some centres unmarked) [Core 29] | matched that assigned to regioisomer 29 |  |  |  | 
2 | COc1ccc([C@@H](C)NC[C@H](O)COc2cc(C(=O)N3CCN(c4cccc(Cl)c4)CC3)on2)cc1 [(S)-29] |  | selectively binds to the E. coli enzyme | exhibits specificity for E. coli DHFR over bovine (B. taurus) DHFR | no detectable affinity | 56 µM and 29 µg/mL
